From patent publication US6469028B1, “Synthesis and use of retinoid compounds having negative hormone and/or anatgonist activities” (Allergan, Inc., priority 1995, dated 2002) come the findings set out here.

In assay [1] the test system is patients having retinal detachment resulting from PVR. As to conditions: 40 mg oral 13-cis retinoic acid twice daily for four weeks.
Assay [2] concerns primary RPE cells. Briefly: Example 27: proliferation of primary RPE cells with TR-1. The assay is classed as cell-based, Human. Particulars: five days of treatment. The protocol: Human primary RPE cells are obtained and cultured according to standard methods. The cultured cells are divided into four groups and treated as follows. Group 1 receives vehicle alone (ethanol). Group 2 is treated with 13-cis retinoic acid at concentrations ranging from 10^−11 to 10^−6 M. Group 3 is treated with the thyroid hormone inverse agonist TR-1 at concentrations ranging from 10^−11 to […]. Group 4 is co-treated with 13-cis retinoic acid at concentrations ranging from 10^−11 to 10^−6 M TR-1. Cells are refed with fresh growth medium and re-treated with the appropriate compound every two days for a total of five days of treatment. The proliferation rate over the duration of the experiment is quantitated via measurement of the cell number in the cultures using an electric cell counter.

Assay [3] has as its system retinal pigment epithelium (RPE) cells. In words: Example 19: proliferation of primary retinal pigment epithelium cultures. The assay is classed as cell-based, human. As to conditions: for RPE cell growth: single agent, 10^−12 to 10^−6M (FIG. 18). The protocol: Primary cultures of human retinal pigment epithelium (RPE) were established according to the method described by Campochiaro et al. in Invest. Opthal & Vis. Sci. 32:65 (1991). 5×10^4 cells were plated in 16-mm wells of 24-well multiwell plates in DMEM (Gibco) containing 5% FBS. […] Cells were fed with fresh media containing the appropriate concentrations of these compounds every two days for a total of five days of treatment. Cells were removed from the plates by gentle digestion with trypsin and the number of cells was counted with an electronic cell counter.
AGN 193109 was tested for its ability to potentiate the anti-proliferative effect of 13-cis retinoic acid (13-cis RA) in primary RPE cultures using conditions and techniques to measure RPE cell proliferation described above. […] More particularly, 13-cis RA is useful in the treatment of several disease states, including acne (Peck et al. N. Engl. J. Med. 300:329 (1977); Jones et al. Br. J. Dermatol. 108:333 (1980)), and squamous cell carcinoma of the skin and cervix in combination treatment with interferon 2α (Lippman et al. J. Natl. Cancer Inst. 84:241 (1992); Moore et al. Seminars in Hematology 31:31 (1994)).
We next tested the ability of AGN 193109 to potentiate the activities of other nuclear receptor hormones in primary RPE cell cultures. Dexamethasone, a synthetic glucocorticoid receptor agonist, is one member of a class of compounds that have been used clinically for their potent anti-inflammatory and immunosuppressive properties. Thyroid hormone (T3; […]) is a natural thyroid hormone receptor agonist used primarily for hormone replacement therapy in the treatment of hypothyroidism.

For assay [4], the system named is T3R-VP-16. In words: Example 26: thyroid hormone receptor negative hormone assay, CV-1 cells. The format is cell-based. Particulars: CV-1 cells with ERE-tk-Luc, ER-RXRα and T3R-VP-16. From the text:
CV-1 cells are co-transfected with the luciferase reporter plasmid ERE-tk-Luc and the plasmids ER-RXR-α and T3R-VP-16. T3R-VP-16 is identical to the plasmid RAR-γ-VP-16, except the RAR-γ moiety of RAR-γ-VP-16 has been substituted by the thyroid hormone receptor cDNA. As such, T3R-VP-16 expresses a fusion protein containing the activation domain of HSV VP-16 in frame with the N-terminus of the thyroid hormone receptor. Standard transfection and cell culture methods are employed for this purpose. After transfection, cells are rinsed and fed with growth medium containing 10% fetal calf serum which has been extracted with activated charcoal. Cells are treated with vehicle alone (ethanol), thyroid hormone (10^−9 to 10^−10 M), or compound TR-1 (10^−9 to 10^−6 M). […] Further, TR-1 is capable of antagonizing thyroid hormone mediated transactivation and as such is a thyroid receptor antagonist.

The subject of assay [5] is rabbits. Briefly: Example 24: rabbit model of proliferative vitreoretinopathy (PVR). The format is in vivo.
Assay [6] deals with ER-RAR-α. Briefly: Example 10: repression of basal gene activity, ERE-tk-Luc, CV-1 cells. The format is cell-based. Particulars: 10^−9 to 10^−6 M, 18 hours, single agent. From the text:
(§1) More specifically, these procedures employed the ER-RAR chimeric receptor and ERE-tk-Luc reporter system. The ERE-tk-Luc plasmid includes the region −397 to −87 of the estrogen responsive 5′-flanking region of the Xenopus vitellogenin A2 gene, described by Klein-Hitpass, et al. in Cell 46:1053-1061 (1986), ligated upstream of the HSV thymidine kinase promoter and luciferase reporter gene of plasmid tk-Luc. The ER-RAR chimeric receptors consisted of the estrogen receptor DNA binding domain fused to the “D-E-F” domain of the RARs. Those having ordinary skill in the art appreciate this “D-E-F” domain functions to bind retinoid, to provide a retinoid inducible transactivation function and to provide a contact site for heterodimerization with RXR. Thus, luciferase expression in this reporter system was dependent on activation of the transfected chimeric receptor construct.
(§2) CV-1 cells were co-transfected with the ERE-tk-Luc reporter plasmid and either ER-RAR-α, ER-RAR-β or ER-RAR-γ expression plasmids. The ERE-tk-Luc plasmid contained the estrogen-responsive promoter element of the Xenopus laevis vitellogenin A2 gene and was substantially identical to the reporter plasmid described by Klein-Hitpass et al. in Cell 46:1053 (1986), except that the CAT reporter gene was substituted by a polynucleotide sequence encoding luciferase. The ER-RAR-α, ER-RARβ and ER-RAR-γ chimeric receptor-encoding polynucleotides employed in the co-transfection have been described by Graupner et al. in Biochem. Biophys. Res. Comm. 179:1554 (1991). […] Calcium phosphate transfections were carried out exactly as described in Example 6 using 0.5 μg/well of reporter plasmid and either 0.05 μg, 0.10 μg or 0.2 μg/well of receptor plasmid. […] Cell lysates and luciferase activity measurements were performed as described in Example 6.

The test system of assay [7] is ER-RAR-β. Described as above. The format is cell-based. As to conditions: 10^−9 to 10^−6 M, 18 hours, single agent.
Description: as §1, §2

Assay [8] concerns ER-RAR-γ. Described as above. The format is cell-based. As to conditions: 10^−9 to 10^−6 M, 18 hours, single agent.
Description: as §1, §2

The target in assay [9] is T1, RARα (Homo sapiens, UniProt P10276).
T1 sequence (P10276 1-462): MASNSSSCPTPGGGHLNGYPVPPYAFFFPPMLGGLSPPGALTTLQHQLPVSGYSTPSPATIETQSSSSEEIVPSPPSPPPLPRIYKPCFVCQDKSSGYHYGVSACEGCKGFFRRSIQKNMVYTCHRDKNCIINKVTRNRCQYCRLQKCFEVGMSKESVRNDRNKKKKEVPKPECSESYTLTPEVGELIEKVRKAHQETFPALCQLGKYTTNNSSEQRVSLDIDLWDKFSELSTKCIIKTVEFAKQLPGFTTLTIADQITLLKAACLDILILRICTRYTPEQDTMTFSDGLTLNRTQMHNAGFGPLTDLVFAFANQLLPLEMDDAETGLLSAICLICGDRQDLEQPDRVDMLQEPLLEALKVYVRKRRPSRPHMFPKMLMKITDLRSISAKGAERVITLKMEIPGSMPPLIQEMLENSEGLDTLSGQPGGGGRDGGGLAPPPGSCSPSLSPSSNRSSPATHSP
In words: Example 8: protease protection analysis. The assay is classed as biochemical. The arrangement: host or cells: TNT-coupled reticulocyte lysate in vitro transcription-translation. Particulars: ATRA and AGN 193109 100 nM, AGN 193583 1000 nM; trypsin 25, 50 or 100 μg/ml, 10 minutes. As to the method:
A plasmid constructed in the vector pGEM3Z (Pharmacia) and containing the RAR-α cDNA (Giguere et al. Nature 330:624 (1987)), was used in connection with the TNT-coupled reticulocyte lysate in vitro transcription-translation system (Promega) to prepare [^35S]-methionine labeled RAR-α. Limited proteolytic digestion of the labeled protein RAR-α was carried out according to the method described by Keidel et al. in Mol. Cell. Biol. 14:287 (1994). […] After ligand binding, 1 μl of appropriately concentrated trypsin was added to the mixture to give final concentrations of 25, 50 or 100 μg/ml. Samples were incubated at room temperature for 10 minutes and trypsin digestion stopped by addition of SDS-sample buffer. Samples were subjected to polyacrylamide gel electrophoresis and autoradiographed according to standard procedures.

Assay [10] concerns RAR-γ-VP-16 with ER-RXR-α. Particulars: no other retinoid added, 18 hours.
Assay [11] deals with cultured cervical carcinoma cells. In words: Example 23: cultured cervical carcinoma cells from a patient biopsy. The format is cell-based. As to conditions: 10^−10 to 10^−6 M. From the text: A patient presenting with an advanced cervical carcinoma is first identified. A cervical biopsy is obtained according to methods that will be familiar to one having ordinary skill in the art. Cells from the explanted tumor are propagated in tissue culture according to standard techniques to provide cell numbers sufficient to allow division into three sample groups. Culture conditions described by Agarwal et al. in Cancer Res. 54:2108 (1994) are employed for this purpose. The first group is reserved as a control and receives vehicle alone (ethanol). The second group is treated with the RAR agonist retinoic acid at a concentration of from 10^−10 to 10^−6 M. The third group is treated with AGN 193109 at doses ranging from 10^−10 to 10^−6 M. Cells are fed with fresh growth medium daily and are provided with the retinoids described above as appropriate for each sample group. Cells are counted after three days using an electric cell counter.

In the case of `CC1=C(/C=C/C(C)=C/C=C/C(C)=C\C(=O)O)C(C)(C)CCC1` [13-cis RA, 13-cis retinoic acid, reference compound], in assay [1], the “incidence of retinal redetachment” value is “significantly reduced incidence of retinal redetachment”. Besides, the “cellular proliferation, single agent” value in assay [2] is “dose dependent decrease in cell number”. For the same compound, the “effectiveness compared with ATRA” value in [3] (13-cis RA 10^−12 to 10^−6M) is listed as “approximately two orders of magnitude less effective”. Also, in assay [3], the RPE cell growth entry is “effectively inhibited RPE cell growth”.

In the case of `N[C@@H](Cc1cc(I)c(Oc2ccc(O)c(I)c2)c(I)c1)C(=O)O` [thyroid hormone, 3,3′,5-triiodothyronine, reference compound], in assay [4], the luciferase activity result is on record as “slight increase of luciferase activity in a dose dependent manner”. Also, the RPE cell proliferation entry in [3] (thyroid hormone alone, 10^−11 to 10^−6M) was “refractory to single-agent treatment”. In assay [5] (second study, single agent 100 μg intravitreal), the “retinal detachment compared with control rabbits” value is given as “does not inhibit retinal detachment”.

Consider `CC1=C(/C=C/C(C)=C/C=C/C(C)=C/C(=O)O)C(C)(C)CCC1` [ATRA, all-trans-retinoic acid, reference compound], for which the luciferase reporter activity entry in [6], in assay [7] and in [8] was “strongly induced luciferase expression” in each case. In addition, the “pattern of trypsin sensitivity of labeled RAR-α after prebinding” value in assay [9] is reported as “two major protease resistant species”. The “luciferase activity of triple transfectants” value in [10] was “modest increase of luciferase activity over the high basal level”. For the same compound, in assay [11], the “cell number after three days” value was “does not substantially inhibit the growth rate”. Also, the RPE cell growth entry in assay [3] is on record as “effectively inhibited RPE cell growth”. Besides, the RPE cell proliferation result in assay [3] (single-agent treatment (FIG. 19): dexamethasone 10^−11 to 10^−6M, ATRA 10^−12 to 10^−6M) is on record as “substantially unable to inhibit RPE cell proliferation”. Also, in assay [5] (retinoic acid 100 μg intravitreal, single agent), the “frequency and severity of tractional retinal detachment” value is “significantly reduced frequency and severity of retinal detachment”.
